# Structures can show the parent of a compound that is named as a salt.
# Test system: Hsp90
# Test: IC50 of compounds of the invention, Example B Method 2 (Tables 6-9)
# Format: cell-based, human
# Settings: Table 7; Her2 degradation / inhibition of Hsp90; Method 2: MV-4-11 cells, 72 hours, Cell Counting Kit-8; read-out: IC50
row,Compound,IC50 [nM]
1,"COc1cccc(Nc2nnc(-c3cc(C(C)C)c(O)cc3O)n2-c2ccc3c(ccn3C)c2)c1 [Compound 8a, 4-isopropyl-6-(5-(3-methoxyphenylamino)-4-(1-methyl-1H-indol-5-yl)-4H-1,2,4-triazol-3-yl)benzene-1,3-diol]",1800
2,"CC(C)c1cc(-c2nnc(NC(=O)c3ccccc3)n2-c2ccc3c(ccn3C)c2)c(O)cc1O [Compound 9a, N-(5-(2,4-dihydroxy-5-isopropylphenyl)-4-(1-methyl-1H-indol-5-yl)-4H-1,2,4-triazol-3-yl)benzamide]",2600
3,"CC(C)c1cc(-c2nnc(NCc3ccccc3)n2-c2ccc3c(ccn3C)c2)c(O)cc1O [Compound 3a, 4-Isopropyl-6-[4-(1-methyl-1H-indol-5-yl)-5-benzylamino-4H-[1,2,4]triazol-3-yl]-benzene-1,3-diol]",35000
4,"CC(C)C(=O)Nc1nnc(-c2cc(C(C)C)c(O)cc2O)n1-c1ccc2c(ccn2C)c1 [Compound 14a, N-(5-(2,4-dihydroxy-5-isopropylphenyl)-4-(1-methyl-1H-indol-5-yl)-4H-1,2,4-triazol-3-yl)isobutyramide]",1560
5,"CC(C)c1cc(-c2nnc(NC(=O)C(F)(F)F)n2-c2ccc3c(ccn3C)c2)c(O)cc1O [Compound 18a, N-(5-(2,4-dihydroxy-5-isopropylphenyl)-4-(1-methyl-1H-indol-5-yl)-4H-1,2,4-triazol-3-yl)-2,2,2-trifluoroacetamide]",3000
6,"CC(C)c1cc(-c2nnc(NC(=O)c3ccco3)n2-c2ccc3c(ccn3C)c2)c(O)cc1O [Compound 15a, N-(5-(2,4-dihydroxy-5-isopropylphenyl)-4-(1-methyl-1H-indol-5-yl)-4H-1,2,4-triazol-3-yl)furan-2-carboxamide]",1040

# Results, then the compound that gave them:
row,IC50 [nM],Compound
1,680,"CC(C)c1cc(-c2nnc(Nc3ccc4ncccc4c3)n2-c2ccc3c(ccn3C)c2)c(O)cc1O [Compound 5a, 4-isopropyl-6-(4-(1-methyl-1H-indol-5-yl)-5-(quinolin-6-ylamino)-4H-1,2,4-triazol-3-yl)benzene-1,3-diol]"
2,1800,"COCC(=O)Nc1nnc(-c2cc(C(C)C)c(O)cc2O)n1-c1ccc2c(ccn2C)c1 [Compound 13a, N-(5-(2,4-dihydroxy-5-isopropylphenyl)-4-(1-methyl-1H-indol-5-yl)-4H-1,2,4-triazol-3-yl)-2-methoxyacetamide]"
3,2740,"CC(C)c1cc(-c2nnc(NC(=O)COc3ccc(Cl)cc3)n2-c2ccc3c(ccn3C)c2)c(O)cc1O [Compound 19a, 2-(4-chlorophenoxy)-N-(5-(2,4-dihydroxy-5-isopropylphenyl)-4-(1-methyl-1H-indol-5-yl)-4H-1,2,4-triazol-3-yl)acetamide]"
4,1460,"CC(C)c1cc(-c2nnc(NC(=O)Cc3ccccc3)n2-c2ccc3c(ccn3C)c2)c(O)cc1O [Compound 16a, N-(5-(2,4-dihydroxy-5-isopropylphenyl)-4-(1-methyl-1H-indol-5-yl)-4H-1,2,4-triazol-3-yl)-2-phenylacetamide]"
5,2900,"CC(C)c1cc(-c2nnc(Nc3cccc(N)c3)n2-c2ccc3c(ccn3C)c2)c(O)cc1O [Compound 6a, 4-(5-(3-aminophenylamino)-4-(1-methyl-1H-indol-5-yl)-4H-1,2,4-triazol-3-yl)-6-isopropylbenzene-1,3-diol]"
6,7860,"Cc1cc(C(=O)Nc2nnc(-c3cc(C(C)C)c(O)cc3O)n2-c2ccc3c(ccn3C)c2)no1 [Compound 10a, N-(5-(2,4-dihydroxy-5-isopropylphenyl)-4-(1-methyl-1H-indol-5-yl)-4H-1,2,4-triazol-3-yl)-5-methylisoxazole-3-carboxamide]"

# Same assay, conditions: Table 8; Her2 degradation / inhibition of Hsp90; Method 2: MV-4-11 cells, 72 hours, Cell Counting Kit-8
row,Compound,IC50 [nM]
1,"CCNC(=O)Sc1nnc(-c2ccc(OC(=O)N(C)C)cc2OC(=O)N(C)C)n1-c1cccc2ccccc12 [Compound 6b, 4-(5-(ethylcarbamoylthio)-4-(naphthalen-1-yl)-4H-1,2,4-triazol-3-yl)-1,3-phenylene bis(dimethyl carbamate)]",> 100000

# Same assay, conditions: Table 8; Her2 degradation / inhibition of Hsp90; Method 2: MV-4-11 cells, 72 hours, Cell Counting Kit-8; read-out: IC50
row,Compound,IC50 [nM]
1,"COCCOc1ccc(-c2nnc(S)n2-c2cccc3ccccc23)c(O)c1 [Compound 5b, 2-(5-mercapto-4-(naphthalen-1-yl)-4H 1,2,4-triazol-3-yl)-5-(2-methoxyethoxy) phenol]",30000
2,"CC(C)c1cc(-c2nn(C(=O)C(N)Cc3ccccc3)c(=O)n2-c2ccc3c(ccn3C)c2)c(OC(=O)C(N)Cc2ccccc2)cc1OC(=O)C(N)Cc1ccccc1 (stereo not shown) [Compound 17b, 4-(1-(2-amino-3-phenylpropanoyl)-4-(1-methyl-1H-indol-5-yl)-5-oxo-4,5-dihydro-1H-1,2,4-triazol-3-yl)-6-isopropyl-1,3-phenylene bis(2-amino-3-phenylpropanoate) trihydrochloride]",46
3,"CC(=O)n1ccc2cc(-n3c(O)nnc3-c3cc(C(C)C)c(O)cc3O)ccc21 [Compound 9b, 1-(5-(3-(2,4-dihydroxy-5-isopropylphenyl)-5-hydroxy-4H-1,2,4-triazol-4-yl)-1H-indol-1-yl)ethanone]",40
4,"CC(C)c1cc(-c2nn(COC(=O)C(N)Cc3ccccc3)c(=O)n2-c2ccc3c(ccn3C)c2)c(O)cc1O (stereo not shown) [Compound 13b, (3-(2,4-dihydroxy-5-isopropylphenyl)-4-(1-methyl-1H-indol-5-yl)-5-oxo-4,5-dihydro-1H-1,2,4-triazol-1-yl)methyl 2-amino-3-phenylpropanoate]",27
5,"COCCC(=O)n1ccc2cc(-n3c(O)nnc3-c3cc(C(C)C)c(O)cc3O)ccc21 [Compound 11b, 3-(2,4-dihydroxy-5-isopropylphenyl)-4-(1-(3-methoxypropanoyl)-1H-indol-5-yl)-1H-1,2,4-triazol-5(4H)-one]",< 100
6,"CCc1cc(-c2nnc(S)n2-c2cccc3ccccc23)c(OC(=O)C(C)(C)C)cc1OC(=O)C(C)(C)C [Compound 3b, 4-ethyl-6-(5-mercapto-4-(naphthalen-1-yl)-4H-1,2,4-triazol-3-yl)-1,3-phenylene bis(2,2-dimethylpropanoate)]",> 2000
7,"CC(C)c1cc(-c2nn(C(=O)CN)c(=O)n2-c2ccc3c(ccn3C)c2)c(OC(=O)CN)cc1OC(=O)CN [Compound 15b, 4-(1-(2-aminoacetyl)-4-(1-methyl-1H-indol-5-yl)-5-oxo-4,5-dihydro-1H-1,2,4-triazol-3-yl)-6-isopropyl-1,3-phenylene bis(2-aminoacetate) trihydrochloride]",79

# The next lines start with the values.
row,IC50 [nM],Compound
1,> 2000,"CCc1cc(-c2nnc(S)n2-c2cccc3ccccc23)c(OC(=O)c2ccccc2)cc1OC(=O)c1ccccc1 [Compound 4b, 4-ethyl-6-(5-mercapto-4-(naphthalen-1-yl)-4H-1,2,4-triazol-3-yl)-1,3-phenylene dibenzoate]"
2,< 110,"CC(C)c1cc(-c2nnc(O)n2-c2ccc3c(ccn3C(=O)CCNC(=O)OC(C)(C)C)c2)c(O)cc1O [Compound 10b, tert-butyl 3-(5-(3-(2,4-dihydroxy-5-isopropylphenyl)-5-hydroxy-4H-1,2,4-triazol-4-yl)-1H-indol-1-yl)-3-oxopropylcarbamate]"
3,58,"CC(C)c1cc(-c2nnc(SSc3nnc(-c4cc(C(C)C)c(O)cc4O)n3-c3ccc(N(C)C)cc3)n2-c2ccc(N(C)C)cc2)c(O)cc1O [Compound 7b, 6,6′-(5,6-disulfanediylbis(4-(4-(dimethylamino)phenyl)-4H-1,2,4-triazole-5,3-diyl))bis(4-isopropylbenzene-1,3-diol)]"

# Same assay, conditions: Table 9; Her2 degradation / inhibition of Hsp90; Method 2: MV-4-11 cells, 72 hours, Cell Counting Kit-8; dihydrochloride; read-out: IC50 Range
row,Compound,IC50 [nM]
1,"CC(C)c1cc(-c2nnc(O)n2-c2ccc(N3CCN(C)CC3)nc2)c(O)cc1O [Compound 9d, 4-(5-hydroxy-4-(6-(4-methylpiperazin-1-yl)pyridin-3-yl)-4H-1,2,4-triazol-3-yl)-6-isopropylbenzene-1,3-diol dihydrochloride]",220

# Same assay, conditions: Table 9; Her2 degradation / inhibition of Hsp90; Method 2: MV-4-11 cells, 72 hours, Cell Counting Kit-8; hydrochloride; read-out: IC50 Range
row,IC50 [nM],Compound
1,207,"CC(C)c1cc(-c2nnc(O)n2-c2ccc(N(C)C)c(S(N)(=O)=O)c2)c(O)cc1O [Compound 13d, 5-(3-(2,4-dihydroxy-5-isopropylphenyl)-5-hydroxy-4H-1,2,4-triazol-4-yl)-2-(dimethylamino)benzene sulfonamide hydrochloride]"

# Same assay, conditions: Table 9; Her2 degradation / inhibition of Hsp90; Method 2: MV-4-11 cells, 72 hours, Cell Counting Kit-8; read-out: IC50 Range
row,Compound,IC50 [nM]
1,"CC(C)c1cc(-c2nnc(O)n2-c2ccc(N(C)CCN(C)C)nc2)c(O)cc1O [Compound 5d, 4-(4-(6-(N-(2-(dimethylamino)ethyl)-N-methylamino)pyridin-3-yl)-5-hydroxy-4H-1,2,4-triazol-3-yl)-6-isopropylbenzene-1,3-diol]",220
2,"CC(C)c1cc(-c2nnc(O)n2-c2ccc(N3CCN(C)CC3)nc2)c(O)cc1O [Compound 8d, 4-(5-hydroxy-4-(6-(4-methylpiperazin-1-yl)pyridin-3-yl)-4H-1,2,4-triazol-3-yl)-6-isopropylbenzene-1,3-diol]",243

# Next, values leading:
row,IC50 [nM],Compound
1,114,"CC(C)c1cc(-c2nnc(O)n2-c2ccc(OCCN3CCOCC3)nc2)c(O)cc1O [Compound 20d, 4-(5-hydroxy-4-(6-(2-morpholinoethoxy)pyridin-3-yl)-4H-1,2,4-triazol-3-yl)-6-isopropylbenzene-1,3-diol]"
2,30,"COCCN(C)c1ccc(-n2c(O)nnc2-c2cc(C(C)C)c(O)cc2O)cn1 [Compound 1d, 4-(4-(6-(N-(2-methoxyethyl)-N-methylamino)pyridin-3-yl)-5-hydroxy-4H-1,2,4-triazol-3-yl)-6-isopropylbenzene-1,3-diol]"
3,330,"CC(C)c1cc(-c2nnc(O)n2-c2ccc(N(C)CC(=O)O)nc2)c(O)cc1O [Compound 4d, 2-(N-(5-(3-(2,4-dihydroxy-5-isopropylphenyl)-5-oxo-1H-1,2,4-triazol-4(5H)-yl)pyridin-2-yl)-N-methylamino)acetic acid]"
4,93,"Cc1ccc(-n2c(O)nnc2-c2cc(C(C)C)c(O)cc2O)cc1S(=O)(=O)N(C)C [Compound 11d, 5-(3-(2,4-dihydroxy-5-isopropylphenyl)-5-hydroxy-4H-1,2,4-triazol-4-yl)-N,N,2-trimethylbenzenesulfonamide]"
